The subject of data set [1] is ARPE-19 cells. Put plainly: Life-dead assay (propidium iodide / Hoechst 33342), ARPE-19 cells. The class given is cell-based. The settings on record: ARPE-19 cells, 0.2% and 0.02% dye, 24 hours after treatment, compared to BSS plus. On the procedure: Confluent RPE and ARPE-19 cells were prepared and treated as described above. Cell viability was quantified based on a two-color fluorescence assay in which the nuclei of nonviable cells appear red because of staining by the membrane-impermeable dye propidium iodide (Sigma), whereas the nuclei of all cells were stained with the membrane-permeable dye Hoechst 33342 (Intergen, Purchase, N.Y.). […] For evaluation of cell viability, cells were washed in PBS and incubated with 2.0 μg/mL propidium iodide and 1.0 μg/mL Hoechst 33342 for 20 minutes at 37° C. Subsequently, cells were analyzed with an epifluorescence microscope (Axioskop; Zeiss, Göttingen, Germany). The labeled nuclei were then counted in fluorescence photomicrographs, and dead cells were expressed as a percentage of total nuclei in the field. The data are based on counts from three experiments performed in duplicate wells, with three to five documented representative fields per well.

Data set [2] concerns vitreous. The data set is described as follows: Staining of the vitreous during pars plana vitrectomy in porcine eyes. The following applies: graded by two examiners. The class given is in vivo. On the procedure: All dyes were dissolved and diluted using balanced salt solution (BSS plus; Alcon Laboratories Inc., Fort Worth, Tex).
Experiments were performed in animals (porcine eyes) and humans after approval of the local ethics committee had been obtained. All experiments were performed in compliance with the Declaration of Helsinki.
Ophthalmic surgery consisted of a standard pars plana vitrectomy. First, the transparent vitreous was removed as completely as possible. Then fluid air exchange was performed in order to avoid an uncontrolled distribution of the dye in the vitreous cavity. The dye was then injected into the air filled globe. After a period of one minute, the dye was washed out by irrigation with BSS. This was followed by an injection of the dye in concentrations from 0.2% to 2%. The staining of the vitreous was graded by two examiners who also performed the surgical procedures.

The subject of data set [3] is anterior lens capsule. The settings on record: previous experimental studies; cited from earlier work.
The test system of data set [4] is anterior segment of the eye. The following applies: animals, dye exposure of seven days, cited from earlier work.
For data set [5], the system named is lens capsule. The data set is described as follows: Staining of the lens capsule in enucleated porcine eyes. The settings on record: injected into air-filled anterior chamber, removed after one minute; clear porcine lens as background. The method, then:
Additionally, the staining characteristics of the lens capsule in enucleated porcine eyes with a postmortem time of nine hours were evaluated. The dyes were injected into the air-filled anterior chamber and removed by irrigation after one minute. Then, the cornea was removed and a capsulorhexis was performed with a bent needle. All procedures were taped on video.

In data set [6] the test system is vitreous and posterior hyaloid. The data set is described as follows: Vitrectomy for idiopathic macular hole (Example 3). The class given is in vivo, humans. From the text:
(§1) This study was approved by the local ethics committee and Institutional Review Board (IRB) and written informed consent was obtained from all patients. Six consecutive patients with idiopathic macular hole, 3 males and 3 females with a mean age of 68 were included. Holes were graded as stage 2 (n=3), stage 3 (n=2) and stage 4 (n=1). The dye was also used in four patients with retinal detachments, 2 females and 2 males with a mean age of 57 years.
(§2) Pre- and postoperatively, all patients underwent a complete clinical examination including measurement of best corrected visual acuity (VA), slit lamp examination, tonometry, and funduscopy using a 78 diopter lens (Volk Optical, Mentor, Ohio, USA). In macular hole patients, we additionally performed optical coherence tomography (OCT) (Stratus-OCT, Carl Zeiss Meditec, Jena, Germany), Goldmann perimetry, multifocal electroretinogram (ERG) and fundus photographs. Patients were seen one day before surgery and then in six weeks intervals. Postoperatively, ERG and Goldmann perimetry were performed at the six weeks follow-up visit and were not repeated if unremarkable.
Bromphenol blue powder was dissolved and diluted using BSS plus and sterilized using a 0.22 μm syringe filter. A final dye concentration of 0.2% was then injected into the eye. Vitrectomy first consisted of a core vitrectomy, followed by vitreous removal in the periphery in the area of the sclerotomy sites by indentation of the globe using a squint hook. Then an attempt was made to induce a posterior vitreous detachment by applying suction at the optic nerve head.
The dye was applied as follows: During pars plana vitrectomy for a macular hole a fluid air-exchange was performed prior to dye injection to achieve a maximum dye concentration on the retinal surface. Then, a few drops of the dye were injected over the posterior pole and the globe was gently moved to allow for an adequate dye distribution (FIG. 8A). This was followed by removal of excessive dye by irrigation after one minute. Then epiretinal tissue was removed if present and an attempt to peel the ILM using an end-gripping forceps was made in selected cases. Surgery was completed by fluid-air exchange and intraocular gas tamponade (hexafluoroethane (C2F6)) as previously described (Haritoglou C., Gandorfer A., Gass C. A., et al., “Indocyanine green-assisted peeling of the internal limiting membrane in macular hole surgery affects visual outcome: a clinicopathologic correlation”, Am J. Ophthalmol 2002; 134: 836-41). During surgery for retinal detachment the dye was applied after induction of a PVD and injection of approximately 1.5 ml heavy liquid (PFCL, perfluorocarbon, Fluoron GmbH, Neu-Ulm, Germany) and fluid-air exchange without removing PFCL (FIG. 8B). Using this approach, we obtained not only a higher dye concentration in the anterior segment of the eye as the dye can not be further diluted by PFCL, but we could also prevent an uncontrolled distribution especially in the subretinal space and excessive contact with the lens capsule, which may result in an unwanted staining effect. In addition we obtained a staining of the vitreous in the periphery as intended. C2F6 was used as an intraocular tamponade at the end of surgery. The staining characteristics were then evaluated by the surgeon.

In data set [7] the test system is vitreous. The data set is described as follows: Vitrectomy for retinal detachment (Example 3). The class given is in vivo, humans.
Excerpt: as §1
as §2, with “unremarkable. […]” for “unremarkable.”
The dye was applied as follows: During pars plana vitrectomy for a macular hole a fluid air-exchange was performed prior to dye injection to achieve a maximum dye concentration on the retinal surface. […] The staining characteristics were then evaluated by the surgeon.

Data set [8] deals with ARPE-19 cells. The data set is described as follows: MTT assay, ARPE-19 cells. The following applies: 0.2% and 0.02% dye, 10 minutes exposure, compared to BSS plus control. In general terms: Formazan colour is commonly taken as a measure of viable cells.
Experimental: ARPE-19 cells, a human retinal pigment epithelial cell line (42), were purchased from ATCC (Manassas, Va., USA) and grown in a 1:1 mixture of Dulbecco's modified Eagles medium and Ham's F12 medium (DMEM/Ham's F12, Biochrom), supplemented with 10% FCS (Biochrom).
For exposure of dyes RPE and ARPE-19 cells were kept for 24 hours under serum free conditions. After washing cells three times with PBS, cells were incubated for 10 minutes with 300 μl of BSS plus containing 0.2% or 0.02% of dye, respectively. […] The dye was then removed by carefully rinsing cells with BSS plus three times. After 24 hours incubation with serum containing media the cell proliferation assay was performed. RPE cells (p3-6) were seeded in 24-well plates and exposed to two concentrations (0.2 and 0.02%) of dyes. BSS plus alone and H2O2, (200 μL/mL) served as controls.
The tetrazolium dye-reduction assay (MTT; 3-[4,5-dimethylthiazol-2-yl]-2,5-diphenyl tetrazolium bromide;) was used to determine cell survival rate. […] The medium was removed, cells were washed with PBS, and 1000 μL/well MTT solution (1.5 mL MTT stock, 2 mg/mL in PBS, plus 28.5 mL DMEM) was added. RPE cells were incubated at 37° C. for 1 hour. The formazan crystals that formed were dissolved by the addition of dimethyl sulfoxide (DMSO; 1000 μL/well). Absorption was measured by a scanning multiwell spectrophotometer at 550 nm (Molecular Probes, Garching, Germany). […] Experiments were performed in triplicate and repeated three times. RPE and ARPE-19 cells of the same passage incubated with BSS without addition of dyes served as control. Statistical comparison between dye concentrations was performed with SPSS (Mann-Whitney-U-Test).
The MTT test as performed in this study is a well established test for the assessment of cell viability, but relies on calorimetric measurement of a blue (550 nm) formazan reaction product. This color overlaps with the absorption spectra of some of the dyes tested. […] Cell monolayers were treated with dyes as per the experiments described above but absorbance readings were performed without prior application of MTT. […]

The structures appear in SMILES notation.

As for `O=S1(=O)OC(c2cc(Br)c(O)c(Br)c2)(c2cc(Br)c(O)c(Br)c2)c2ccccc21` [Bromophenol blue, Bromophenole blue], the “cell viability, nuclei of nonviable cells labeled with propidium iodide” value in data set [1] is listed as “did not affect cell survival”. For the same compound, the “staining effect of the vitreous” value in data set [2] (dye concentration 0.2%) was “good”. For the same compound, the “staining effect of the vitreous” value in data set [2] (dye concentration 2.0%) is on record as “strong”. Besides, in data set [3], the “safety for intraocular application” value is given as “safe for intraocular application” and the “staining of the anterior lens capsule” value is “strongly stain”. The “clinical examinations: signs of inflammatory responses or toxicity in the anterior segment” value in data set [4] (also higher dye concentrations) is given as “did not reveal any signs of inflammatory responses or toxicity”. The “histological abnormalities following enucleation” value in data set [4] was “no histological abnormalities”. Besides, in data set [5], the “staining of the lens capsule in porcine eyes” value is “stained well”. The “staining of remnant vitreous in the periphery at the vitreous base” value in data set [6] (0.2%, macular hole surgery) is “could be seen in all cases”. Further, in data set [6] (0.2%, three cases with complete PVD and no epiretinal membrane), the “staining of the retinal surface or the ILM” value is “no staining of the retinal surface or the ILM”. For the same compound, in data set [6] (in vivo), the “amplitudes in postoperative ERG examinations” value is recorded as “no affection of the amplitudes”, the “loss of VA” value is recorded as “No loss of VA” and the “peripheral visual field defects indicating dye related toxicity” value is “nor did we observe peripheral visual field defects”. In addition, the “staining of the adherent posterior hyaloid membrane” value in data set [6] (macular hole patients with incomplete PVD) is listed as “very useful”. Also, in data set [6] (overall patients), the VA postoperatively is recorded as 20/40 and the VA preoperatively is recorded as 20/100. For the same compound, the macular hole closure result in data set [6] (second operation necessary in one case) was “All macular holes could be closed successfully”. For the same compound, in data set [7] (0.2%, injected onto PFCL bubble), the “identification of peripheral vitreous remnants at the vitreous base and retinal breaks” value is “helped to identify peripheral remnants of vitreous”. The “reattachment of the retina” value in data set [7] (in vivo) is listed as “could be achieved in all cases”. Also, the “cell survival of ARPE-19 cells (MTT)” value in data set [8] is “no significant impact on cell survival”.

Source of the values: patent publication US20080206149A1, “METHOD, DYE AND MEDICAMENT FOR STAINING THE INTERNAL LIMITING MEMBRANE, EPIRETINAL MEMBRANE, THE VITREOUS AND/OR THE CAPSULE OF AN EYE” (LUDWIG-MAXIMILIANS-UNIVERSITAT MUNCHEN, priority 2005, published 2008).
